Laboratory results from patent publication US20250109121A1, “POTENT AND SELECTIVE SMARCA2 DEGRADING CHIMERIC MOLECULES AS CANCER THERAPEUTICS” (BOARD OF REGENTS, THE UNIVERSITY OF TEXAS SYSTEM, priority 2021, published 2025).
Read-outs that look alike come from different tables or passages of the source.

Columns and labels:
Assay type in all cases: cell-based
[1] = molecular target: T1, SMARCA2 (Homo sapiens, UniProt P51531); assay: SMARCA2 degradation in cell lines, western blot; details: for SMARCA2 degradation (western blot, in words): 0.001-10 μm; for SMARCA2 expression at 100 nM (in words): H1792 and H1299 cells
T1 sequence (P51531 whole entry): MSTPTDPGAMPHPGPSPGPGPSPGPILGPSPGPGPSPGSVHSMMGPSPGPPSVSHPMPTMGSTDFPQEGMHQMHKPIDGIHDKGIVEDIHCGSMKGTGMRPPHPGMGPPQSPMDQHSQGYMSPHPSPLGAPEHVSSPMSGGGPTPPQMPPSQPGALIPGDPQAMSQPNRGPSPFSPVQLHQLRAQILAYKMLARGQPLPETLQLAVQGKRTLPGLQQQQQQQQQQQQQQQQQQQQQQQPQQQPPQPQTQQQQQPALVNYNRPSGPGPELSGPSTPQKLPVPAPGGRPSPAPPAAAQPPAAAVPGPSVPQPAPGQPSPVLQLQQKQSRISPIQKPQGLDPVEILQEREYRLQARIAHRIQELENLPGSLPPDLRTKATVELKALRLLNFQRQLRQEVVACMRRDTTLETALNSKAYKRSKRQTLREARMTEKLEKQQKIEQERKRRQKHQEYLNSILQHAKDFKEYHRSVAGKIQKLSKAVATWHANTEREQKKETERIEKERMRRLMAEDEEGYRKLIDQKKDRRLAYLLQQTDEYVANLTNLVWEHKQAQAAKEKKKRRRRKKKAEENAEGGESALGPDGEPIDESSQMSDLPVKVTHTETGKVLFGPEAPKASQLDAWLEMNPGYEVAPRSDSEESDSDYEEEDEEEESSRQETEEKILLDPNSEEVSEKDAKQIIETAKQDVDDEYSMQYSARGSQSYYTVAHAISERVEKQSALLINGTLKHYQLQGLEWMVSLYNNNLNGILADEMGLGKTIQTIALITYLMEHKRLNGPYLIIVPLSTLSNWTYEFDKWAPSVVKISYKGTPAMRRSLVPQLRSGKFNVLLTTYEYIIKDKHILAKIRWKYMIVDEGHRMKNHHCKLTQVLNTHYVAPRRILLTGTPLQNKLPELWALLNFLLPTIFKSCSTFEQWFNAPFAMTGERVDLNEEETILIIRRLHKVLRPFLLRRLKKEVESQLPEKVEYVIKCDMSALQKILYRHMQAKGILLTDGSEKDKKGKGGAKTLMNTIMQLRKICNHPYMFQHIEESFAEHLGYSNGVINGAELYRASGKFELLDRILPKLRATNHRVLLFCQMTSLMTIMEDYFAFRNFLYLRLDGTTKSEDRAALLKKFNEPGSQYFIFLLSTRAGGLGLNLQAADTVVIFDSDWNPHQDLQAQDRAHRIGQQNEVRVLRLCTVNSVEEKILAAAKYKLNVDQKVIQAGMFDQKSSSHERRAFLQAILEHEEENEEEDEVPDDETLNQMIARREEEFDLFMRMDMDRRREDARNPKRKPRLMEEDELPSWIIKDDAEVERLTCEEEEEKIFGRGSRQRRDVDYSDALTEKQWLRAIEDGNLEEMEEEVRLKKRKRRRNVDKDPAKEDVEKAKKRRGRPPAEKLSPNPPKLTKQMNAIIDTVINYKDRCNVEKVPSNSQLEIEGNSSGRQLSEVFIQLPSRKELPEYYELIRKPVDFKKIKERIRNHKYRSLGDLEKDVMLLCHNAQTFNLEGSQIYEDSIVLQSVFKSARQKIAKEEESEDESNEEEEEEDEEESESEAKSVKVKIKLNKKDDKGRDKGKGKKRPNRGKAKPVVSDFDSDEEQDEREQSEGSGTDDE
Protocol: Cell lines with wild-type SMARCA4 (H1975, H1792, H2122, and H441) were treated with DMSO or 0.001, 0.01, 0.1, 1, or 10 μm of ACBI1 (degrader of SMARCA2, SMARCA4 and polybromo-associated BAF complex PBRM1) or Compound 101 and expression levels of SMARCA2 (FIG. 2A) and SMARCA4 (FIG. 2B) were detected by western blot.
(§1) Cell lines with wild-type SMARCA4 (H1792) and mutant SMARCA4 (H1299) were treated for 72 h or 96 h with DMSO or 0.001, 0.01, 0.1, 1, or 10 μm Compound 103 and analyzed by western blot for SMARCA2, SMARCA4, and PBRM1 expression (FIGS. 4A, 4B, and 4C).
(§2) Cell lines with wild-type SMARCA4 (H1792) and mutant SMARCA4 (H1299) were treated for 72 h or 96 h with DMSO or 0.001, 0.01, 0.1, 1, or 10 μm Compound 102 and analyzed by western blot for SMARCA2, SMARCA4, and PBRM1 expression (FIGS. 5A, 5B, and 5C).
(§3) Cell lines with wild-type SMARCA4 (H1975) were treated with DMSO or 0.001, 0.01, 0.1, 1, or 10 μm of Compounds 104, 105, 106, 107, or 108 and analyzed by western blot for SMARCA2, SMARCA4, and PBRM1 expression (FIGS. 6A and 6B).

[2] = molecular target: SMARCA4 (Homo sapiens, UniProt P51532); assay: SMARCA4 degradation in cell lines, western blot; details: for DC50: read-out: SMARCA4 DC50
Chain of SMARCA4 (Homo sapiens, UniProt P51532) (P51532 whole entry): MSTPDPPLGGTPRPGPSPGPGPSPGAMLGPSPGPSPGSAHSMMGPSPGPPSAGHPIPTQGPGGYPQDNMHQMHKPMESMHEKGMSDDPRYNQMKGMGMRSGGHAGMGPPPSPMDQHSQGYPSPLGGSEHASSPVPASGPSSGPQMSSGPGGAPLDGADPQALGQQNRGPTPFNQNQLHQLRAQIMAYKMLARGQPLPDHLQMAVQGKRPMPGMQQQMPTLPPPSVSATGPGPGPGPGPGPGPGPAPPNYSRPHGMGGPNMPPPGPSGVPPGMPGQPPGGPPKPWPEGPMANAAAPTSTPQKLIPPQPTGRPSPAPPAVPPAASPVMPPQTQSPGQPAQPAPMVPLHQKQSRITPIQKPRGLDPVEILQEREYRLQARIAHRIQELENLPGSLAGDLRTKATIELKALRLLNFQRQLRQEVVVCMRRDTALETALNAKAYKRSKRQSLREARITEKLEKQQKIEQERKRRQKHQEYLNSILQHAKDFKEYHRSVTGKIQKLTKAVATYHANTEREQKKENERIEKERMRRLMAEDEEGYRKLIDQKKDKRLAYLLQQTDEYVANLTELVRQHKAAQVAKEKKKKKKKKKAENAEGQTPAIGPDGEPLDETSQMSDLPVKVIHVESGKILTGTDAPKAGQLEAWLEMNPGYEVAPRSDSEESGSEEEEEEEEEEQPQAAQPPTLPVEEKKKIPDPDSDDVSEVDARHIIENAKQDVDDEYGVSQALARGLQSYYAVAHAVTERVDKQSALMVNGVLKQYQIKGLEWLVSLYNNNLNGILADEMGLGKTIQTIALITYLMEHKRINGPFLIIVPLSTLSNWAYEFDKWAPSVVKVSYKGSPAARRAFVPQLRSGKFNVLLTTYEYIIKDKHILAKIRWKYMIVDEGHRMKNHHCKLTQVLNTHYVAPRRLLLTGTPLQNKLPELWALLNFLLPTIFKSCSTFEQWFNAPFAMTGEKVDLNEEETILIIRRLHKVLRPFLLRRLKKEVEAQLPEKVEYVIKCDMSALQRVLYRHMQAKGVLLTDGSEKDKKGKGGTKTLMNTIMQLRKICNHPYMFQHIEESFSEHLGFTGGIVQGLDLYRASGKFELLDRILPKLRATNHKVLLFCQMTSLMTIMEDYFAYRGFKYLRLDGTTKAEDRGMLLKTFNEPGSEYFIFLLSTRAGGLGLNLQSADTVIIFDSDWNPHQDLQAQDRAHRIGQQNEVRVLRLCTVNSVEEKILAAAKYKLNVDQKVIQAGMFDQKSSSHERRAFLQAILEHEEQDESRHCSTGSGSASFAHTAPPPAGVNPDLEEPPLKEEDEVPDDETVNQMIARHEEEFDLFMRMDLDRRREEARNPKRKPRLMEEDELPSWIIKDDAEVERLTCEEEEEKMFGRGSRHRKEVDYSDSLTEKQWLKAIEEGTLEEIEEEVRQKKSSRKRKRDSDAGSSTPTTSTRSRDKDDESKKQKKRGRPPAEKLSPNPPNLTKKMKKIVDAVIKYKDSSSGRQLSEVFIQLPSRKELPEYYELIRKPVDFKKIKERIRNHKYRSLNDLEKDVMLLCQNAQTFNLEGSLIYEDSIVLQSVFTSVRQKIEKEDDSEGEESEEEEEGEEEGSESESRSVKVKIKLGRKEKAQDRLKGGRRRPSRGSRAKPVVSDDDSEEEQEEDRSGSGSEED

[3] = test system: wild-type SMARCA4 cells; assay: Colony assay / cell proliferation, wild-type SMARCA4 cell lines as a group; details: HCC44, H2122, H1792, H1975; 0.001-10 μm
Protocol: (§4) Cell lines with wild-type SMARCA4 (HCC44, H2122, H1792 and H1975) and cell lines with mutant SMARCA4 (H1693, HCC515, H322, and H1299) were seeded in appropriate dilutions to form colonies in about 1-3 weeks. Cells were treated with ACBI1 or Compound 101 at concentrations of 0.001, 0.01, 0.1, 1, and 10 μm. Colonies were fixed with glutaraldehyde (6% v/v), stained with crystal violet (0.5% w/v) and the percent area of colonies was determined (FIGS. 3A and 3B). In cell lines with wild-type SMARCA4, inhibition of colony growth was more pronounced after treatment with ACBI1 than Compound 101 (FIG. 3A).

[4] = test system: mutant SMARCA4 cells; assay: Colony assay / cell proliferation, mutant SMARCA4 cell lines as a group; details: H1693, HCC515, H322, H1299; 0.001-10 μm
Protocol: as §4

[5] = molecular target: T1, SMARCA2; assay: SMARCA2 degradation in cell lines, western blot
[6] = test system: SMARCA4; assay: SMARCA4 degradation in cell lines, western blot; details: H1792 and H1299 cells, 72 h or 96 h, 0.001-10 μm
[7] = molecular target: T2, PBRM1 (Homo sapiens, UniProt Q86U86); assay: PBRM1 expression in cell lines, western blot; details: H1792 and H1299 cells, 72 h or 96 h, 0.001-10 μm
T2 construct: heterobifunctional compounds, which recruit endogenous proteins to a ubiquitin ligase for degradation; endogenous in cells; host or cells: H1792, H1299, H1975
T2 sequence (Q86U86 whole entry): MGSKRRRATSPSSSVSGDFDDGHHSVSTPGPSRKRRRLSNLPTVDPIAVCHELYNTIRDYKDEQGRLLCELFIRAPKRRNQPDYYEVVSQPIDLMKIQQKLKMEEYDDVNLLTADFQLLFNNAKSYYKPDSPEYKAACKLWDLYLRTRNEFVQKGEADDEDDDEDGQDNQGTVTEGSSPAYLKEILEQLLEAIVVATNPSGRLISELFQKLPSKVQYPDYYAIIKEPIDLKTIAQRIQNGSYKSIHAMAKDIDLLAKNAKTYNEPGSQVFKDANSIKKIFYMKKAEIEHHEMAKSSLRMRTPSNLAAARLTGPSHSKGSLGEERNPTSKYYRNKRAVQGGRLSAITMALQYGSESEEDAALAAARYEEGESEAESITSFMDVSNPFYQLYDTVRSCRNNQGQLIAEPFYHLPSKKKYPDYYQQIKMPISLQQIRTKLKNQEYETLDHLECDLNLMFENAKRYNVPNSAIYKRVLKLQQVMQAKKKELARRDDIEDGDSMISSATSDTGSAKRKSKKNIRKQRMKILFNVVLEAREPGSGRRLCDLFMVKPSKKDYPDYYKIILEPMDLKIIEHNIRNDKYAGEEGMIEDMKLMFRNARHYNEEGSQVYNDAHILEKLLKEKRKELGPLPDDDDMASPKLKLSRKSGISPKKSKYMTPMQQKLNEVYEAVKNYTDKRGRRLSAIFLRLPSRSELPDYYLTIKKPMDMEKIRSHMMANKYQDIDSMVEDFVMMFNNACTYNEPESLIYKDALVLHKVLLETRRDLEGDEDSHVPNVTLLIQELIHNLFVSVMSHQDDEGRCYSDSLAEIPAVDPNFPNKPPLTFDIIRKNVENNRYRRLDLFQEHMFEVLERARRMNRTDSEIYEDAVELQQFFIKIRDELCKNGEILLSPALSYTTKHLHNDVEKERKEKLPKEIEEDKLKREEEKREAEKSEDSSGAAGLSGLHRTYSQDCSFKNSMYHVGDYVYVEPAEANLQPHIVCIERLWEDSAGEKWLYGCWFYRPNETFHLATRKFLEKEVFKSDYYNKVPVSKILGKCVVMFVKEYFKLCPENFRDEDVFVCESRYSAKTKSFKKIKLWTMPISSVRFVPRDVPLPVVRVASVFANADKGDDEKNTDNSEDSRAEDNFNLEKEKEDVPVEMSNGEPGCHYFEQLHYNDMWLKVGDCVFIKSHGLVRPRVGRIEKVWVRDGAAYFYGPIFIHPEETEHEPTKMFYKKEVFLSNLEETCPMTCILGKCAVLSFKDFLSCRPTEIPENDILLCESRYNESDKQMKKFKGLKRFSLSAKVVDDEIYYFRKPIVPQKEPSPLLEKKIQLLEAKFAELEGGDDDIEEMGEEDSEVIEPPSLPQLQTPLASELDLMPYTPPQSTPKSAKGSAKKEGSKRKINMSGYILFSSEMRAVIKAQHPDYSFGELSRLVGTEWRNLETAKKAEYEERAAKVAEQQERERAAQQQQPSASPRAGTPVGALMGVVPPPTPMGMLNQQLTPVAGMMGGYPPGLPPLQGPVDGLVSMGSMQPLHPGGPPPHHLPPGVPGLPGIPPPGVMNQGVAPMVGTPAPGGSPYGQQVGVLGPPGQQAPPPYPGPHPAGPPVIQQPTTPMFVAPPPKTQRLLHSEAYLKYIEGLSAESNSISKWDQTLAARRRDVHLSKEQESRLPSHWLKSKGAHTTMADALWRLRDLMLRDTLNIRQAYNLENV
Protocol: as §1, §2, §3

[8] = H441, wild-type SMARCA4 cell line
[9] = H1792, wild-type SMARCA4 cell line
[10] = H2122, wild-type SMARCA4 cell line
[11] = H1975, wild-type SMARCA4 cell line
[12] = H1792 (wild-type SMARCA4) and H1299 (mutant SMARCA4) cells, 72 h or 96 h

## Cc1ncsc1-c1ccc(CNC(=O)[C@@H]2C[C@@H](O)CN2C(=O)[C@@H](NC(=O)C2(F)CC2)C(C)(C)C)c(OCCOc2ccc(CN3CCN(c4cc(-c5ccccc5O)nnc4N)CC3)cc2)c1 [ACBI1, reference compound]
[1]; [8]
  DC50: 11 nM
[1]; [9]
  DC50: 7 nM
[1]; H1975, H1792, H2122, H441, increasing concentrations
  SMARCA2 degradation (western blot, in words): degraded SMARCA2 and SMARCA4
[1]; H1975, wild-type SMARCA4 cell line, concentration at which 50% of the target protein is degraded
  DC50: 51 nM
[1]; [10]
  DC50: 13 nM
[2]; [8]
  SMARCA4 Dmax (%): 99%
  DC50: 36 nM
[2]; [9]
  SMARCA4 Dmax (%): 98%
  DC50: 18 nM
[2]; H1975, H1792, H2122, H441 (Table 3)
  SMARCA4 Dmax, span over cell lines: 97-99%
[2]; H1975, H1792, H2122, H441, 0.001-10 μm, increasing concentrations
  SMARCA4 degradation (western blot, in words): degraded SMARCA2 and SMARCA4
[2]; [11]
  SMARCA4 Dmax (%): 98%
  DC50: 98 nM
[2]; [10]
  SMARCA4 Dmax (%): 97%
  DC50: 32 nM
[3]
  colony growth / proliferation of wild-type SMARCA4 cells (in words): inhibited wild-type and mutant SMARCA4 cells
[4]
  colony growth / proliferation of mutant SMARCA4 cells (in words): inhibited wild-type and mutant SMARCA4 cells
[5]; [8]
  SMARCA2 Dmax (%): 97%
[5]; [9]
  SMARCA2 Dmax (%): 97%
[5]; H1975, wild-type SMARCA4 cell line, maximum degradation as percentage of DMSO control
  SMARCA2 Dmax (%): 98%
[5]; [10]
  SMARCA2 Dmax (%): 95%

## Nc1nnc(-c2ccccc2O)cc1N1CCN(Cc2ccc(N3CCN(CCOc4cccc5c4C(=O)N(C4CCC(=O)NC4=O)C5=O)CC3)c(F)c2)CC1 (centres unmarked) [Compound 102]
[1]; [12]
  SMARCA2 degradation (western blot, in words): efficiently degraded SMARCA2
[1]
  SMARCA2 expression at 100 nM (in words): significantly inhibited SMARCA2 expression
[6]
  SMARCA4 expression (western blot, in words): reduced expression of SMARCA4
[7]
  PBRM1 expression (western blot, in words): did not have a significant effect on the expression of PBRM1

## Nc1nnc(-c2ccccc2O)cc1N1CCN(Cc2ccc(N3CCC(CN4CCN(c5ccc6c(c5)C(=O)N(C5CCC(=O)NC5=O)C6=O)CC4)CC3)c(F)c2)CC1 (centres unmarked) [Compound 103]
[1]; [12]
  SMARCA2 degradation (western blot, in words): efficiently degraded SMARCA2
[1]
  SMARCA2 expression at 100 nM (in words): significantly inhibited SMARCA2 expression
[6]
  SMARCA4 expression (western blot, in words): reduced expression of SMARCA4 in H1792 cells
[7]
  PBRM1 expression (western blot, in words): did not have a significant effect on the expression of PBRM1
